Assay type in all cases: physicochemical
A short description of data set [1]: Drug metabolism assessed as ring opening in EtOH/H2O at 75 mM measured after 40 mins under dark condition by UV-vis spectrophotometric method. To be noted: for Drug metabolism: 40 min, 75000 µM; for degraded at 40 min: EtOH/H2O, read-out: Drug metabolism.
Data set [2] in a line: Photochemical stability of the compound in EtOH/H2O assessed as ring opening by measuring compound decomposition at 75 mM measured in presence of ambient daylight conditions after 40 mins by UV-vis spectrophotometric method. Particulars: for degraded at 40 min: EtOH/H2O, read-out: Drug degradation.
Data set [3] can be described thus: Photochemical stability of the compound assessed as compound decomposition in phosphate buffer at pH 7.4 exposed to daylight at 0.4 mM measured over 3 hrs by UV-Vis absorbance method. Particulars: read-out: Drug degradation.

SMILES strings stand for the structures.

In the case of `[O-]c1on[s+]c1-c1ccc(F)cc1F`, the Drug metabolism result in data set [1] is “Metabolite_Detected”. Besides, in data set [2] (40 min, 75000 µM), the Stability entry is given as “Stable”.

Take `[O-]c1on[s+]c1-c1ccc(F)cc1`: the degraded at 40 min in data set [1] is 40 to 80%; in data set [2], 76%.

Regarding `[O-]c1on[s+]c1-c1ccccc1`, the degraded at 40 min in data set [1] is 48%. The degraded at 3 h, 400 µM in data set [3] stood at 7%.

With `[O-]c1on[s+]c1-c1ccccc1Cl`, the Drug metabolism result in data set [1] is “Metabolite_Detected”.

Take `[O-]c1on[s+]c1-c1cccc(Cl)c1`: the degraded at 40 min in data set [1] was 40 to 80%.

`[O-]c1on[s+]c1-c1ccc(Cl)cc1`: in data set [1], the Drug metabolism entry was “Metabolite_Detected”. The degraded at 40 min in data set [2] was found to be 42%.

For the molecule `[O-]c1on[s+]c1-c1cc(F)cc(F)c1`, the degraded at 40 min in data set [1] was 40 to 80%.

(Values after ChEMBL document CHEMBL4219093, “New 4-aryl-1,3,2-oxathiazolylium-5-olates: Chemical synthesis and photochemical stability of a novel series of S-nitrosothiols” (Bioorg Med Chem Lett, 2018).)
